Counter-ions that a name gives are not always drawn. Like-named read-outs stand apart in the source and are kept apart here.
What was measured:
[1] = target: AChE (Homo sapiens, UniProt P22303); assay: biochemical; conditions: means ± SD of three determinations, 30 min preincubation at 25 °C, pH 7.5
[2] = target: T1, h-SERT (Homo sapiens, UniProt P31645); assay: biochemical; type: binding; conditions: displacement of 2 nM [3H]-paroxetine, HEK293 membranes, Cheng-Prusoff
T1 construct: purchased Perkin-Elmer RBHSTM400UA; host or cells: HEK293 membranes
Protocol: Competitive binding studies were conducted on homogenized membranes prepared from the human clonal cell line HEK293 for h-SERT. […] The inhibitory activity on AChE or butyrylcholinesterase (BuChE), which has also been regarded as a relevant cholinesterase target in AD [23], was determined using the spectrophotometric method, as described by Ellman, modified from Mella (Section 3.3).
The cellular background HEK293 containing 400 µL of h-SERT (Code RBHSTM400UA, Perkin-Elmer, Santiago, Chile) was diluted in 12 Eppendorf tubes, containing a storage buffer solution of Tris-HCl 50 mM (pH 7.4), EDTA 0.5 mM, MgCl2 10 mM, and 10% sucrose, obtaining a final volume between 260 and 340 µL, which was finally stored at −80 °C [27]. […] Non-specific binding was determined using […] fluoxetine. After 30 min at 27 °C, the incubation was stopped by rapid filtration on a Whatman GF/C filter preabsorbed in 0.5% polyethylenimine (PEI), washed with cold working buffer solution, 3 × 3 mL, filtered, and scintillation liquid was added.

[3] = target: BuChE (Homo sapiens, UniProt P06276); assay: biochemical
[4] = tested on: human AChE; h-AChE; conditions: read-out: IC50 in human AChE (h-AChE); ref [14],[15],[16]; cited from earlier work
[5] = means ± SD of three determinations, 30 min preincubation at 25 °C, pH 7.5, read-out: BuChE IC50

Sequence of BuChE (P06276 29-602): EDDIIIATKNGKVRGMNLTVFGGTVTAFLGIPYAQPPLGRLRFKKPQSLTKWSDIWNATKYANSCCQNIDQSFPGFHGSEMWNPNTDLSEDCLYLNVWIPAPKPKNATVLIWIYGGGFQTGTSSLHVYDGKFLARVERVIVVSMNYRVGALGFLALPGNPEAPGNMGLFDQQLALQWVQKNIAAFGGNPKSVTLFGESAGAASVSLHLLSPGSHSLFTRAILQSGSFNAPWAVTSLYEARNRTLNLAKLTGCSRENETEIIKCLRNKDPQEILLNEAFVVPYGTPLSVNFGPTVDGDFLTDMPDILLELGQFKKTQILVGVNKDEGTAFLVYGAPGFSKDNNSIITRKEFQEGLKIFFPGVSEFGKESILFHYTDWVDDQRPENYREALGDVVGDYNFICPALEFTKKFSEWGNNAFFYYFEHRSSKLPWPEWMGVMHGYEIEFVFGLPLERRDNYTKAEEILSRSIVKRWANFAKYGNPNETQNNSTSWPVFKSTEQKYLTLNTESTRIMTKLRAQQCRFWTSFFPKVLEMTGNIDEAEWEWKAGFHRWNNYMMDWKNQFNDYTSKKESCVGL
T1 sequence (P31645 whole entry): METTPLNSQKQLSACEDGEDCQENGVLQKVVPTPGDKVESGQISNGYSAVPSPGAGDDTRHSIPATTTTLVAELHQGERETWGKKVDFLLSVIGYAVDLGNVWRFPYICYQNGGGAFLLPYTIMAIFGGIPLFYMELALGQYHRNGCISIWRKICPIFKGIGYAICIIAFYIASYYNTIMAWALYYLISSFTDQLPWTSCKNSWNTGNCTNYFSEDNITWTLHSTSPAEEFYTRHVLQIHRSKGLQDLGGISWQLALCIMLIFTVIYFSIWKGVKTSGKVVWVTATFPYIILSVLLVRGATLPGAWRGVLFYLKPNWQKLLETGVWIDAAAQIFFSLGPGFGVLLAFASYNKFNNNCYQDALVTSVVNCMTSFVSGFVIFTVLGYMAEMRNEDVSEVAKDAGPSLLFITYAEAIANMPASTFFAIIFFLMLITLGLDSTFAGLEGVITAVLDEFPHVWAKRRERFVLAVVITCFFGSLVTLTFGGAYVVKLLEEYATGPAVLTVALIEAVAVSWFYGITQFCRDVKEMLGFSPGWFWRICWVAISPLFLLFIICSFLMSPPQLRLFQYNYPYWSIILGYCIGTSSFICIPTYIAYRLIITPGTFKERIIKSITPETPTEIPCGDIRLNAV
Sequence of AChE (P22303 32-614): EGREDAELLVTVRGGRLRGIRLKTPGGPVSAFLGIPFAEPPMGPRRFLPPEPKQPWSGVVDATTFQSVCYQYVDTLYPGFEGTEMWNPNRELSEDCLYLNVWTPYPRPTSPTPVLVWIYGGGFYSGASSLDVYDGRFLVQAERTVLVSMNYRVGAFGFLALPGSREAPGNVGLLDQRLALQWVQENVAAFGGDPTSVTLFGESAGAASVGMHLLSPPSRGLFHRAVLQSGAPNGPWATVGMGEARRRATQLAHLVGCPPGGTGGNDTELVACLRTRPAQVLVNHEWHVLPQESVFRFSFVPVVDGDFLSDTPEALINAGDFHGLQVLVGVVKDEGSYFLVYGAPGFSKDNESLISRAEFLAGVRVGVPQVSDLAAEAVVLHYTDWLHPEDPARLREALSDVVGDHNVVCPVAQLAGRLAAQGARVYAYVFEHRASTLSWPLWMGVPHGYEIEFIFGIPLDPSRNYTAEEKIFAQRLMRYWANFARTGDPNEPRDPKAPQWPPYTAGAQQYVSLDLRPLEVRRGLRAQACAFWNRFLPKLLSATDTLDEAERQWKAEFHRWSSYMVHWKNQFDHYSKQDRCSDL

Work on `COc1cc2c(cc1OC)CN(CC1CCN(C(=O)c3cccc(F)c3)CC1)CC2` [Compound 13, (4-((6,7-Dimethoxy-3,4-dihydroisoquinolin-2(1H)-yl)methyl)piperidin-1-yl)(3-fluorophenyl)methanone] yielded an IC50 ([1]; read-out: AChE IC50) of over 500 µM, a Ki [2] of 1.91 ± 0.77 µM and an IC50 [3, 5] of over 500 µM.

Compound `COc1cc2c(cc1OC)CN(C(=O)C1CCN(Cc3cccc(Cl)c3)CC1)CC2` [Compound 9, (1-(3-Chlorobenzyl)piperidin-4-yl)(6,7-dimethoxy-3,4-dihydroisoquinolin-2(1H)-yl)methanone] has an IC50 ([1]; read-out: AChE IC50) of 34.5 ± 1.97 µM, a Ki [2] of over 100 µM and an IC50 [3, 5] of 268 ± 13.8 µM.

With `O=C(OCC1CCN(Cc2ccccc2)CC1)c1ccc2ccccc2c1` [Compound 22, (1-Benzylpiperidin-4-yl)methyl-2-naphthoate] the IC50 ([1]; read-out: AChE IC50) was 61.7 ± 2.56 µM, the Ki [2] was 26.9 ± 2.57 µM and the IC50 [3, 5] was 59.3 ± 1.42 µM.

With `COc1cc2c(cc1OC)CN(CC1CCN(C(=O)c3ccccc3)CC1)CC2` [Compound 12, (4-((6,7-Dimethoxy-3,4-dihydroisoquinolin-2(1H)-yl)methyl)piperidin-1-yl)(phenyl)methanone] the IC50 ([1]; read-out: AChE IC50) was 290 ± 10.9 µM, the Ki [2] was 2.62 ± 0.82 µM and the IC50 [3, 5] was over 500 µM.

For `COc1cc2c(cc1OC)CN(C(=O)C1CCN(Cc3cccc(Br)c3)CC1)CC2` [Compound 10, (1-(3-Bromobenzyl)piperidin-4-yl)(6,7-dimethoxy-3,4-dihydroisoquinolin-2(1H)-yl)methanone], the IC50 ([1]; read-out: AChE IC50) was 28.3 ± 0.87 µM, the Ki [2] was over 100 µM and the IC50 [3, 5] was 426 ± 28.6 µM.

Compound `COc1cc2c(cc1OC)CN(CC1CCN(C(=O)c3cccc(Br)c3)CC1)CC2` [Compound 15, (3-Bromophenyl)(4-((6,7-dimethoxy-3,4-dihydroisoquinolin-2(1H)-yl)methyl)piperidin-1-yl)methanone] has an IC50 ([1]; read-out: AChE IC50) of 242 ± 24.4 µM, a Ki [2] of 1.47 ± 0.73 µM and an IC50 [3, 5] of over 500 µM.

For `COc1cc2c(cc1OC)CN(C(=O)C1CCN(Cc3ccccc3)CC1)CC2` [Compound 7, (1-Benzylpiperidin-4-yl)(6,7-dimethoxy-3,4-dihydroisoquinolin-2(1H)-yl)methanone], the IC50 ([1]; read-out: AChE IC50) was 34.4 ± 0.51 µM, the Ki [2] was over 100 µM and the IC50 [3, 5] was over 500 µM.

For `O=C(Cc1ccccc1)OCC1CCN(Cc2ccccc2)CC1` [Compound 18, (1-Benzylpiperidin-4-yl)methyl-2-phenylacetate], the IC50 ([1]; AChE IC50 (µM)) was 200 ± 8.61 µM, the Ki [2] was 27.1 ± 3.4 µM and the IC50 [3] was 256 ± 5.03 µM.

Compound `COc1cc2c(cc1OC)CN(C(=O)C1CCN(Cc3ccc(Cl)cc3Cl)CC1)CC2` [Compound 11, (1-(2,4-Dichlorobenzyl)piperidin-4-yl)(6,7-dimethoxy-3,4-dihydroisoquinolin-2(1H)-yl)methanone] has an IC50 ([1]; read-out: AChE IC50) of over 500 µM, a Ki [2] of over 100 µM and an IC50 [3, 5] of over 500 µM.

Compound `O=C(Cc1ccc(Cl)cc1)OCC1CCN(Cc2ccccc2)CC1` [Compound 20, (1-Benzylpiperidin-4-yl)methyl-2-(4-chlorophenyl)acetate] has an IC50 ([1]; read-out: AChE IC50) of 259 ± 14.6 µM, a Ki [2] of over 100 µM and an IC50 [3, 5] of over 500 µM.

Compound `COc1cc2c(cc1OC)CN(C(=O)C1CCN(Cc3cccc(F)c3)CC1)CC2` [Compound 8, (6,7-Dimethoxy-3,4-dihydroisoquinolin-2(1H)-yl)(1-(3-fluorobenzyl)piperidin-4-yl)methanone] has an IC50 ([1]; read-out: AChE IC50) of 41.2 ± 3.17 µM, a Ki [2] of over 100 µM and an IC50 [3, 5] of over 500 µM.

In the case of `COc1cccc(C(=O)N2CCC(CN3CCc4cc(OC)c(OC)cc4C3)CC2)c1` [Compound 16, (4-((6,7-Dimethoxy-3,4-dihydroisoquinolin-2(1H)-yl)methyl)piperidin-1-yl)(3-methoxyphenyl)methanone], the IC50 ([1]; read-out: AChE IC50) is reported as 439 ± 28 µM, the Ki [2] is reported as 1.59 ± 0.58 µM and the IC50 [3, 5] is reported as over 500 µM.

`O=C(OCC1CCN(Cc2ccccc2)CC1)C(c1ccccc1)c1ccccc1` [Compound 21, (1-Benzylpiperidin-4-yl)methyl-2,2-diphenylacetate] gave an IC50 ([1]; read-out: AChE IC50) of over 500 µM, a Ki [2] of 25.5 ± 1.01 µM and an IC50 [3, 5] of 6.16 ± 0.29 µM.

For `COc1ccc2c3c1O[C@H]1C[C@@H](O)C=C[C@@]31CCN(C)C2` [GAL, Galantamine hydrobromide], the IC50 [4] is given as 18.6 µM.

For `COc1cc2c(cc1OC)CN(CC1CCN(C(=O)c3cccc(Cl)c3)CC1)CC2` [Compound 14, (3-Chlorophenyl)(4-((6,7-dimethoxy-3,4-dihydroisoquinolin-2(1H)-yl)methyl)piperidin-1-yl)methanone], the IC50 ([1]; read-out: AChE IC50) was over 500 µM, the Ki [2] was 2.43 ± 0.24 µM and the IC50 [3, 5] was over 500 µM.

With `O=C(Cc1ccc(F)cc1)OCC1CCN(Cc2ccccc2)CC1` [Compound 19, (1-Benzylpiperidin-4-yl)methyl-2-(4-fluorophenyl)acetate] the IC50 ([1]; read-out: AChE IC50) was 5.1 ± 0.24 µM and the IC50 [3, 5] was 26.8 ± 0.81 µM.

From article PMC12299174, “Design, Synthesis, and Evaluation of 1-Benzylpiperidine and 1-Benzoylpiperidine Derivatives as Dual-Target Inhibitors of Acetylcholinesterase and Serotonin Transporter for Alzheimer′s Disease” (Molecules, 2025)
